In patent US11478461B2, “[1.1.1] bicyclo compounds as indoleamine 2,3-dioxygenase inhibitors” (Merck Sharp & Dohme Corp., priority 2018, dated 2022):

Each compound was assayed against IDO1 (Homo sapiens, UniProt P14902) (assay: IDO1 Cellular Assay in Hela Cells Stimulated with IFNγ). Conditions: IFNγ 100 ng/mL, 300 uM L-tryptophan, about 48 hours, fluorescence readout, read-out: IDO1 HELA Cell Assay, IC50.
Format: cell-based
Description: Biological Assays IDO1 Cellular Assay in Hela Cells Stimulated with IFNγ
Hela cells were cultured in complete Hela culture medium ([…], 10% heat-inactivated fetal bovine serum) and expanded to about 1×10^9 cells. The cells were then collected and frozen down at 10×10^6 cells/vial in 1 mL frozen medium (90% complete Hela culture medium, 10% DMSO).
Compounds to be tested were serially diluted in ten 3-fold steps in DMSO starting from 10 mM DMSO stocks in Echo low volume plate(s). Compound dilutions or DMSO alone were then dispensed from the dilution plate(s) into Greiner black 384-well assay plate(s) (catalog #781086, 50 nL/well) using an Echo 550 acoustic liquid handler (Labcyte).
Frozen Hela cells were thawed and transferred into Hela assay medium (99% complete Hela culture medium, 1% Pen/Strep) with 20 mL medium/vial of cells. The cells were spun down at 250 g in a table top centrifuge for 5 min and suspended in same volume of Hela assay medium. […] Sterile L-tryptophan were added to the cells with final concentration of 300 uM L-tryptophan. A small aliquot (2 mL/plate) of Hela cells were set aside and were not treated with IFNγ, to serve as the Max-E control. The rest of Hela cells were added with sterile IFNγ (Cat #285-IF, R & D systems) with a final concentration of 100 ng/mL.
Hela cells with and without IFNγ were dispensed to the respective wells of 384-well assay plates containing the compounds. The plates were incubated for about 48 hours at a 37° C., 5% CO2 incubator. Afterwards, 12 μL of 0.5 M methyl isonipecotate in dimethyl sulfoxide were added into each well and the plates were sealed and incubated at 37° C. without CO2 overnight. The plates were centrifuged for 1 min at 200×g. The resulting fluorescence was measured in a Spectramax plate reader (Molecular Devices) with a 400 nm excitation filter and a 510 nm emission filter.
Potencies were calculated by […] least squares fit to the four parameter logistic IC50 equation.

Chain of IDO1 (P14902 whole entry): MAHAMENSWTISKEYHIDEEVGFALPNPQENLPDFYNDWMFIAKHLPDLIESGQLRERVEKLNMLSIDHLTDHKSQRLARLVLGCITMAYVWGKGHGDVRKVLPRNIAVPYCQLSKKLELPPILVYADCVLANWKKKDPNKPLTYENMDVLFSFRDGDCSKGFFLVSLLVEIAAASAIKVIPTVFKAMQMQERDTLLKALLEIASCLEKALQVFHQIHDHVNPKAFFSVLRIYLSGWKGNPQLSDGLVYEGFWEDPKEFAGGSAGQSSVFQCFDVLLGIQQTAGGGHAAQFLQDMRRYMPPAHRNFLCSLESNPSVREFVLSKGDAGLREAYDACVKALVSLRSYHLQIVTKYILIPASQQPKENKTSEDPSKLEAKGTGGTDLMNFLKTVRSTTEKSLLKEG

`C[C@H](C(=O)Nc1ccc(F)cc1)C12CC(NC(=O)Nc3ccc(F)c(F)c3)(C1)C2` [Example 82, (S)-2-(3-(3-(3,4-difluorophenyl)ureido)bicyclo[1.1.1]pentan-1-yl)-N-(4-fluorophenyl)propanamide] and `C[C@H](C(=O)Nc1ccc(F)cc1)C12CC(NC(=O)Nc3ccc(F)c(Cl)c3)(C1)C2` [Example 83, (S)-2-(3-(3-(3-chloro-4-fluorophenyl)ureido)bicyclo [1.1.1]pentan-1-yl)-N-(4-fluorophenyl)propanamide] are within 1.5-fold of each other in IC50: 30.3 nM for the first, 39 nM for the second.

`Cc1c(Cl)cccc1NC(=O)NC12CC([C@H](C)C(=O)Nc3ccc(F)cc3)(C1)C2` [Example 84, (S)-2-(3-(3-(3-chloro-2-methylphenyl)ureido)bicyclo [1.1.1]pentan-1-yl)-N-(4-fluorophenyl)propanamide] and `C[C@H](C(=O)Nc1ccc(F)cc1)C12CC(NC(=O)Nc3cccc4ccccc34)(C1)C2` [Example 86, (S)-N-(4-fluorophenyl)-2-(3-(3-(naphthalen-1-yl)ureido)bicyclo[1.1.1]pentan-1-yl)propanamide] are within 1.5-fold of each other in IC50: 77.2 nM for the first, 84.8 nM for the second.

`C[C@H](C(=O)Nc1ccc(F)cc1)C12CC(NC(=O)Nc3ccc(F)cc3)(C1)C2` [Example 85, (S)-N-(4-fluorophenyl)-2-(3-(3-(4-fluorophenyl)ureido)bicyclo [1.1.1]pentan-1-yl)propanamide] and `C[C@H](C(=O)Nc1ccc(F)cc1)C12CC(NC(=O)Nc3cccc(C(F)(F)F)c3)(C1)C2` [Example 87, (S)-N-(4-fluorophenyl)-2-(3-(3-(3-(trifluoromethyl)phenyl)ureido)bicyclo[1.1.1]pentan-1-yl)propanamide] are within 1.5-fold of each other in IC50: 73.2 nM for the first, 90.3 nM for the second.

First: C[C@@H](C(=O)Nc1cnc(F)c(F)c1)C12CC(NC(=O)c3ccc(Cl)c(Cl)c3)(C1)C2 [Example 88, (R)-3,4-Dichloro-N-(3-(1-((5,6-difluoropyridin-3-yl)amino)-1-oxopropan-2-yl)bicyclo[1.1.1]pentan-1-yl)benzamide]
Second: C[C@@H](C(=O)Nc1cnc(Cl)c(F)c1)C12CC(NC(=O)c3ccc(Cl)c(Cl)c3)(C1)C2 [Example 89, (R)-3,4-dichloro-N-(3-(1-((6-chloro-5-yl)amino)-1-oxopropan-2-yl)bicyclo[1.1.1]pentan-1-yl)benzamide]
The IC50 of the first is 4.8-fold higher: 315 nM for the first, 65.4 nM for the second.

`C[C@@H](C(=O)Nc1cnc(Cl)nc1)C12CC(NC(=O)c3ccc(Cl)c(Cl)c3)(C1)C2` [Example 90, (R)-3,4-dichloro-N-(3-(1-((2-chloropyrimidin-5-yl)amino)-1-oxopropan-2-yl)bicyclo[1.1.1]pentan-1-yl)benzamide] and `C[C@H](C(=O)Nc1cnc(Cl)c(Cl)c1)C12CC(NC(=O)c3ccc(Cl)c(Cl)c3)(C1)C2` [Example 93, (S)-3,4-dichloro-N-(3-(1-((5,6-dichloropyridin-3-yl)amino)-1-oxopropan-2-yl)bicyclo[1.1.1]pentan-1-yl)benzamide] are within 1.5-fold of each other in IC50: 118 nM for the first, 105 nM for the second.

Compared with `C[C@@H](C(=O)Nc1ccc(F)c(F)c1)C12CC(NC(=O)c3ccc(Cl)c(Cl)c3)(C1)C2` [Example 91, (R)-3,4-dichloro-N-(3-(1-((3,4-difluorophenyl)amino)-1-oxopropan-2-yl)bicyclo[1.1.1]pentan-1-yl)benzamide], `C[C@H](C(=O)Nc1ccc(F)c(F)c1)C12CC(NC(=O)c3ccc(Cl)c(Cl)c3)(C1)C2` [Example 97, (S)-3,4-dichloro-N-(3-(1-((3,4-difluorophenyl)amino)-1-oxopropan-2-yl)bicyclo[1.1.1]pentan-1-yl)benzamide] is 2.1-fold higher in IC50: 122 nM for the first, 260 nM for the second.

Going from `C[C@@H](C(=O)Nc1ccc(C(F)(F)F)cc1)C12CC(NC(=O)c3ccc(Cl)c(Cl)c3)(C1)C2` [Example 92, (R)-3,4-dichloro-N-(3-(1-oxo-1-((4-(trifluoromethyl)phenyl)amino)propan-2-yl)bicyclo[1.1.1]pentan-1-yl)benzamide] to `C[C@H](C(=O)Nc1ccc(C(F)(F)F)cc1)C12CC(NC(=O)c3ccc(Cl)c(Cl)c3)(C1)C2` [Example 98, (S)-3,4-dichloro-N-(3-(1-oxo-1-((4-(trifluoromethyl)phenyl)amino)propan-2-yl)bicyclo[1.1.1]pentan-1-yl)benzamide], the IC50 rises from 6.43 nM to 23.2 nM (3.6-fold). The first is the more potent here.

First: C[C@H](C(=O)Nc1cncc(Cl)c1)C12CC(NC(=O)c3ccc(Cl)c(Cl)c3)(C1)C2 [Example 94, (S)-3-chloro-5-(2-(3-(3,4-dichlorobenzamido)bicyclo[1.1.1]pentan-1-yl)propanamido)pyridin-1-ium 2,2,2-trifluoroacetate]
Second: C[C@H](C(=O)Nc1ccc(F)c(Cl)c1)C12CC(NC(=O)c3ccc(Cl)c(Cl)c3)(C1)C2 [Example 96, (S)-3,4-dichloro-N-(3-(1-((3-chloro-4-fluorophenyl)amino)-1-oxopropan-2-yl)bicyclo[1.1.1]pentan-1-yl)benzamide]
The IC50 of the first is 10-fold lower: 7.78 nM for the first, 78.4 nM for the second.

First: C[C@H](C(=O)Nc1ccc(F)c(C(F)(F)F)c1)C12CC(NC(=O)c3ccc(Cl)c(Cl)c3)(C1)C2 [Example 95, (S)-3,4-dichloro-N-(3-(1-((4-fluoro-3-(trifluoromethyl)phenyl)amino)-1-oxopropan-2-yl)bicyclo[1.1.1]pentan-1-yl)benzamide]
Second: C[C@H](C(=O)Nc1cccc(C(F)(F)F)c1)C12CC(NC(=O)c3ccc(Cl)c(Cl)c3)(C1)C2 [Example 99, (S)-3,4-dichloro-N-(3-(1-oxo-1-((3-(trifluoromethyl)phenyl)amino)propan-2-yl)bicyclo[1.1.1]pentan-1-yl)benzamide]
The IC50 of the first is 1.8-fold lower: 60.6 nM for the first, 111 nM for the second.

`CC(C)(C(=O)Nc1ccc(F)cc1)C12CC(NC(=O)c3ccc(Cl)c(Cl)c3)(C1)C2` [Example 101, 3,4-Dichloro-N-(3-(1-((4-fluorophenyl)amino)-2-methyl-1-oxopropan-2-yl)bicyclo[1.1.1]pentan-1-yl)benzamide] and `CC(C)(C(=O)Nc1ccc(F)cc1)C12CC(NC(=O)c3cccc(Cl)c3)(C1)C2` [Example 102, 3-Chloro-N-(3-(1-((4-fluorophenyl)amino)-2-methyl-1-oxopropan-2-yl)bicyclo[1.1.1]pentan-1-yl)benzamide] are within 1.5-fold of each other in IC50: 16.9 nM for the first, 19.2 nM for the second.

Going from `CC(C)(NC(=O)c1ccc(F)cc1)C12CC(NC(=O)c3ccc(Cl)c(Cl)c3)(C1)C2` [Example 103, 3,4-Dichloro-N-(3-(2-(4-fluorobenzamido)propan-2-yl)bicyclo[1.1.1]pentan-1-yl)benzamide] to `O=C(NC12CC(C3(C(=O)Nc4ccc(F)cc4)COC3)(C1)C2)c1cccc(Cl)c1` [Example 104, 3-(3-(3-Chlorobenzamido)bicyclo[1.1.1]pentan-1-yl)-N-(4-fluorophenyl)oxetane-3-carboxamide], the IC50 falls from 46.9 nM to 20.7 nM (2.3-fold).

Going from `O=C(NC12CC(C3(C(=O)Nc4ccc(F)c(F)c4)COC3)(C1)C2)c1cccc(Cl)c1` [Example 105, 3-(3-(3-Chlorobenzamido)bicyclo[1.1.1]pentan-1-yl)-N-(3,4-difluorophenyl)oxetane-3-carboxamide] to `CC(C(=O)Nc1ccc(F)cc1)C12CC(NC(=O)c3cccc(OC(F)(F)F)c3)(C1)C2` (stereo not drawn) [Example 109, N-[3-[2-(4-fluoroanilino)-1-methyl-2-oxo-ethyl]-1-bicyclo[1.1.1]pentanyl]-3-(trifluoromethoxy)benzamide], the IC50 falls from 35.8 nM to 11.2 nM (3.2-fold).

Compared with `CCc1cc(C(=O)NC23CC(C(C)C(=O)Nc4ccc(F)cc4)(C2)C3)no1` (stereo not drawn) [Example 110, 5-ethyl-N-[3-[2-(4-fluoroanilino)-1-methyl-2-oxo-ethyl]-1-bicyclo[1.1.1]pentanyl]isoxazole-3-carboxamide], `Cc1noc(C(=O)NC23CC(C(C)C(=O)Nc4ccc(F)cc4)(C2)C3)n1` (stereo not drawn) [Example 114, N-[3-[2-(4-fluoroanilino)-1-methyl-2-oxo-ethyl]-1-bicyclo[1.1.1]pentanyl]-3-methyl-1,2,4-oxadiazole-5-carboxamide] is 3.4-fold higher in IC50: 17.7 nM for the first, 59.6 nM for the second. The first is the more potent here.

`CC(C(=O)Nc1ccc(F)cc1)C12CC(NC(=O)c3cccc4cncn34)(C1)C2` (stereo not drawn) [Example 111, N-[3-[2-(4-fluoroanilino)-1-methyl-2-oxo-ethyl]-1-bicyclo[1.1.1]pentanyl]imidazo[1,5-a]pyridin-2-ium-5-carboxamide] and `CC(C(=O)Nc1ccc(F)cc1)C12CC(NC(=O)c3cnn4ccccc34)(C1)C2` (stereo not drawn) [Example 113, N-[3-[2-(4-fluoroanilino)-1-methyl-2-oxo-ethyl]-1-bicyclo[1.1.1]pentanyl]pyrazolo[1,5-a]pyridin-1-ium-3-carboxamide] are within 1.5-fold of each other in IC50: 34.2 nM for the first, 47.3 nM for the second.

First: CC(C(=O)Nc1ccc(F)cc1)C12CC(NC(=O)c3cc(Cl)ccn3)(C1)C2 (stereo not drawn) [Example 112, 4-chloro-N-[3-[2-(4-fluoroanilino)-1-methyl-2-oxo-ethyl]-1-bicyclo[1.1.1]pentanyl]pyridin-1-ium-2-carboxamide]
Second: CC(C(=O)Nc1ccc(F)cc1)C12CC(NC(=O)c3noc4c3CCCC4)(C1)C2 (stereo not drawn) [Example 115, N-[3-[2-(4-fluoroanilino)-1-methyl-2-oxo-ethyl]-1-bicyclo[1.1.1]pentanyl]-4,5,6,7-tetrahydro-1,2-benzoxazole-3-carboxamide]
The IC50 of the first is 1.7-fold lower: 40.4 nM for the first, 67 nM for the second. The first is the more potent here.
